Experimental data: publication PMC7383931, “Novel Thienopyrimidine Inhibitors of Leishmania N-Myristoyltransferase with On-Target Activity in Intracellular Amastigotes” (Journal of Medicinal Chemistry, 2020)
Where “and” joins values, the source holds several entries; their conditions need not be identical. Equal entries are not always repeated. Where two headings read alike, the source gives them in different places.

Tests used:
[1] = system: bone-marrow-derived macrophages (BMDM); test: Alamar blue-based assay, macrophage toxicity; format: cell-based, BALB/c mice; conditions: for BMDM TC50: toxicity against bone marrow derived macrophages; for Alamar Blue Assay nAUC: toxicity against bone-marrow-derived macrophages, normalized area under the curve
Procedure: . Due to the steep slope of the toxicity profile and the correspondingly low accuracy of the CC50 values, the normalized area under the curve (nAUC) was used as the toxicity parameter (Figure 6A). […].
Macrophages (BMDM) were differentiated from the bone marrow of 6–8 week old female BALB/c mice, as described previously,[37] and maintained at 37 °C and 5% CO2 in DMEM (GIBCO) supplemented with 4 mM L-glutamine (GIBCO) and 4% L929-cell-conditioned medium. BMDMs were seeded at 4.2 × 10^4 cells per well in 96-well plates and adhered for at least 4 h. Subsequently, inhibitor concentrations were added for 72 h, followed by the addition of a 1/10 volume Alamar blue (Trek Diagnostics). Fluorescence was measured after 6 h as described above.

[2] = system: NMT (protein myristoylation) in L. donovani amastigotes; format: cell-based; conditions: in-gel fluorescence, varying inhibitor concentrations
[3] = biological target: LdNMT (Leishmania donovani, UniProt D0AB09); test: biochemical; conditions: 95% confidence interval in brackets
LdNMT, sequence (D0AB09 entry or part of it): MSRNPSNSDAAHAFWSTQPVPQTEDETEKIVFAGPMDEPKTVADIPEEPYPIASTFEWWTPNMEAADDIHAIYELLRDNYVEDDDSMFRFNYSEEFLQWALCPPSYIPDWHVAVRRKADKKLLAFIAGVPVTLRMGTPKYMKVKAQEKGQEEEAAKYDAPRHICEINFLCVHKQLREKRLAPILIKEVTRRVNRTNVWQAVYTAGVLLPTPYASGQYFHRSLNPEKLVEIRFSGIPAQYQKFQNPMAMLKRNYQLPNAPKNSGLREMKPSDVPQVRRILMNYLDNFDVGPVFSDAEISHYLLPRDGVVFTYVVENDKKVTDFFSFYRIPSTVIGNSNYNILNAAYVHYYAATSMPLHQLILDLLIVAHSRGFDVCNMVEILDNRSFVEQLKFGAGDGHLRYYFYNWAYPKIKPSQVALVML

[4] = biological target: T1, LmNMT (Leishmania major, UniProt Q4Q5S8); test: CPM assay (fluorogenic NMT activity assay), LmNMT; format: biochemical; conditions: 95% confidence interval in brackets; read-out: CPM Assay, IC50 (CI95) LmNMT
T1 sequence (Q4Q5S8 1-421): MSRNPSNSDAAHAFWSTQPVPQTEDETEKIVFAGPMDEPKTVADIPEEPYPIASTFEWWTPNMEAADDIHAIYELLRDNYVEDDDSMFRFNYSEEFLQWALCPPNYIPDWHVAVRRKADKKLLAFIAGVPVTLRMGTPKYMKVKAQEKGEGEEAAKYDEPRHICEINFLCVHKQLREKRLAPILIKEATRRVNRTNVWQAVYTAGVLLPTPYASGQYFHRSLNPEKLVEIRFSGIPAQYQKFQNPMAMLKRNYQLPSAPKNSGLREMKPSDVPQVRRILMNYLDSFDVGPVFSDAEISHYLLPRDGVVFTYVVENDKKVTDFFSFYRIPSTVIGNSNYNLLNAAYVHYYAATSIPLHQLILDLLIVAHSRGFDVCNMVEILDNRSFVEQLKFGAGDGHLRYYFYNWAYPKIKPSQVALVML

[5] = system: L. donovani amastigotes; test: Alamar blue-based assay, L. donovani amastigotes; format: cell-based; conditions: Leishmania donovani
[6] = system: HsNMTs; set-up: method as in PMID 30380837; conditions: versus Leishmania major (Lm) NMT; cited from earlier work
[7] = system: intracellular amastigotes; set-up: method as in PMID 30380837; conditions: cited from earlier work

With `CN(CCC#N)c1nc(N(C)C2CCNC2)nc2cc(C(C)(C)C)sc12` (stereo not shown) [Compound 53, 3-((6-(tert-Butyl)-2-(methyl(pyrrolidin-3-yl)amino)thieno[3,2-d]pyrimidin-4-yl)(methyl)amino)propanenitrile] the “BMDM TC50” value [1] was >40 µM.

For `CN(CCC#N)c1nc(N(C)C2CCNCC2)nc2ccccc12` [Compound 23, 3-(Methyl(2-(methyl(piperidin-4-yl)amino)quinazolin-4-yl)amino)propanenitrile], the “BMDM TC50” value [1] was >50 µM.

In the case of `CN1CCC(N(C)c2nc(N(C)CCC#N)c3ccccc3n2)C1` (stereo not shown) [Compound 26, 3-(Methyl(2-(methyl(1-methylpyrrolidin-3-yl)amino)quinazolin-4-yl)amino)propanenitrile], the effect on myristoylation [2] is reported as “significantly decreased myristoylation in a dose-dependent manner”, the “BMDM TC50” value [1] is reported as >50 µM and the “Alamar Blue Assay nAUC” value [1] is reported as 1.03.

For `CN1CCC(N(C)c2nc(N3CCC[C@H]3CC#N)c3sccc3n2)CC1` [Compound 43, (S)-2-(1-(2-(Methyl(1-methylpiperidin-4-yl)amino)thieno[3,2-d]pyrimidin-4-yl)pyrrolidin-2-yl)acetonitrile], the “BMDM TC50” value [1] was >50 µM and the “Alamar Blue Assay nAUC” value [1] was 1.08.

In the case of `CCN1CCC(N(C)c2nc(N(C)CCC#N)c3sccc3n2)CC1` [Compound 12, 3-(Methyl(2-(methyl(1-ethylpiperidin-4-yl)amino)thieno[3,2-d]pyrimidin-4-yl)amino)propanenitrile], the “BMDM TC50” value [1] is reported as >50 µM and the “Alamar Blue Assay nAUC” value [1] is reported as 1.05.

In the case of `CN(C)CCCN(C)c1nc(N(C)CCC#N)c2sc(C(C)(C)C)cc2n1` [Compound 51, 3-((6-(tert-Butyl)-2-((3-(dimethylamino)propyl)(methyl)amino)thieno[3,2-d]pyrimidin-4-yl)(methyl)amino)propanenitrile], the “BMDM TC50” value [1] is reported as 27.3 (24.1-31.0) μM.

With `CN(C)CCCN(C)c1nc(N(C)CCC#N)c2ccccc2n1` [Compound 4, 3-((2-((3-(Dimethylamino)propyl)(methyl)amino)quinazolin-4-yl)(methyl)amino)propanenitrile] the “BMDM TC50” value [1] was >100 µM and the “Alamar Blue Assay nAUC” value [1] was 1.17.

In the case of `CN(C)CCCN(C)c1nc(N2CCC[C@H]2CO)c2sccc2n1` [Compound 39, (S)-(1-(2-((3-(Dimethylamino)propyl)(methyl)amino)thieno[3,2-d]pyrimidin-4-yl)pyrrolidin-2-yl)methanol], the “BMDM TC50” value [1] is reported as >50 µM and the “Alamar Blue Assay nAUC” value [1] is reported as 1.14.

With `CN1CCC(N(C)c2nc(N(C)CCC#N)c3ccccc3n2)CC1` [Compound 3, 3-(Methyl(2-(methyl(1-methylpiperidin-4-yl)amino)quinazolin-4-yl)amino)propanenitrile] the “BMDM TC50” value [1] was >100 µM and the “Alamar Blue Assay nAUC” value [1] was 1.04.

In the case of `CN(CCC#N)c1nc(N(C)C2CCNCC2)nc2ccsc12` [Compound 10, 3-(Methyl(2-(methyl(piperidin-4-yl)amino)thieno[3,2-d]pyrimidin-4-yl)amino)propanenitrile], the “BMDM TC50” value [1] is reported as >50 µM and the “Alamar Blue Assay nAUC” value [1] is reported as 1.05.

Compound `CN(C)CCCN(C)c1nc(N(C)CCC#N)c2sccc2n1` [Compound 2, 3-((2-((3-(Dimethylamino)propyl)(methyl)amino)thieno[3,2-d]pyrimidin-4-yl)(methyl)amino)propanenitrile] has an IC50 ([3]; read-out: CPM Assay, IC50 (CI95) LdNMT) of 0.59 µM.

With `CN1CCC(N(CCCO)c2nc(N(C)CCC#N)c3ccccc3n2)CC1` [Compound 30, 3-((2-((3-Hydroxypropyl)(1-methylpiperidin-4-yl)amino)quinazolin-4-yl)(methyl)amino)propanenitrile] the IC50 [4] was 19 µM and 18.8 µM.

For `CN1CCC(N(C)c2nc(N(C)CCC#N)c3sc(C(C)(C)C)cc3n2)C1` (stereo not shown) [Compound 52, 3-((6-(tert-Butyl)-2-(methyl(1-methylpyrrolidin-3-yl)amino)thieno[3,2-d]pyrimidin-4-yl)(methyl)amino)propanenitrile], the “BMDM TC50” value [1] was >40 µM.

With `CCN(C)c1nc(N(C)C2CCNCC2)nc2ccsc12` [Compound 47, N^4-Ethyl-N^2,N^4-dimethyl-N^2-(piperidin-4-yl)thieno[3,2-d]pyrimidine-2,4-diamine] the “BMDM TC50” value [1] was >50 µM.

In the case of `CN(C)CCCN(C)c1nc(N(C)CCC#N)c2cc(Br)ccc2n1` [Compound 56, 3-((6-Bromo-2-((3-(dimethylamino)propyl)(methyl)amino)quinazolin-4-yl)(methyl)amino)propanenitrile], the “BMDM TC50” value [1] is reported as >40 µM and the “Alamar Blue Assay nAUC” value [1] is reported as 1.3 and 1.28.

For `CN(CCC#N)c1nc(N(CCCO)C2CCNCC2)nc2ccccc12` [Compound 29, 3-((2-((3-Hydroxypropyl)(piperidin-4-yl)amino)quinazolin-4-yl)(methyl)amino)propanenitrile], the IC50 [4] was 15 µM and 15.3 µM.

For `CCN1CCC(N(C)c2nc(N(C)CCC#N)c3ccccc3n2)CC1` [Compound 24, 3-((2-((1-Ethylpiperidin-4-yl)(methyl)amino)quinazolin-4-yl)(methyl)amino)propanenitrile], the “BMDM TC50” value [1] was >50 µM.

For `COC[C@@H]1CCCN1c1nc(N(C)C2CCN(C)CC2)nc2ccsc12` [Compound 40, (S)-4-(2-(Methoxymethyl)pyrrolidin-1-yl)-N-methyl-N-(1-methylpiperidin-4-yl)thieno[3,2-d]pyrimidin-2-amine], the “BMDM TC50” value [1] was >40 µM and the “Alamar Blue Assay nAUC” value [1] was 1.06.

Work on `CN1CCC(N(C)c2nc(N(C)CCC#N)c3sc(C(C)(C)C)cc3n2)CC1` [Compound 50, 3-((6-(tert-Butyl)-2-(methyl(1-methylpiperidin-4-yl)amino)thieno[3,2-d]pyrimidin-4-yl)(methyl)amino)propanenitrile] yielded an EC50 ([5]; extracellular L. donovani amastigotes (Table S2), read-out: Ld Amastigotes EC50 (CI05)) of 10.1 µM and an EC50 ([5]; intracellular L. donovani amastigotes, read-out: Alamar Blue Assay EC50 (CI95)) of 10 µM.

In the case of `CCN(C)c1nc(N(C)C2CCN(C)CC2)nc2ccsc12` [Compound 46, N^4-Ethyl-N^2,N^4-dimethyl-N^2-(1-methylpiperidin-4-yl)thieno[3,2-d]pyrimidine-2,4-diamine], the “BMDM TC50” value [1] is reported as >50 µM and the “Alamar Blue Assay nAUC” value [1] is reported as 1.05.

With `CN(C)CCCN(C)c1nc(N(C)CCC(N)=O)c2sccc2n1` [Compound 36] the “BMDM TC50” value [1] was >50 µM.

For `CN1CCC(N(C)c2nc(N(C)CCC#N)c3sccc3n2)CC1` [Compound 1, 3-(Methyl(2-(methyl(1-methylpiperidin-4-yl)amino)thieno[3,2-d]pyrimidin-4-yl)amino)propanenitrile], the effect on myristoylation [2] was “significantly decreased myristoylation in a dose-dependent manner”, the “BMDM TC50” value [1] was >100 µM and the “Alamar Blue Assay nAUC” value [1] was 1.07.

For `Cc1nn(C)c(C)c1N(C(F)F)S(=O)(=O)c1c(Cl)cc(CCCC2CCN(C)CC2)cc1Cl` [DDD100097], the “selectivity over HsNMTs” value [6] is given as 10 fold and the EC50 [7] is given as 2.4 µM.

For `CN(C)CCCN(C)c1nc(N(C)CCCO)c2sccc2n1` [Compound 35, 3-((2-((3-(Dimethylamino)propyl)(methyl)amino)thieno[3,2-d]pyrimidin-4-yl)(methyl)amino)propan-1-ol], the “BMDM TC50” value [1] was >50 µM.

With `CCN(C)c1nc(N(C)C2CCNCC2)nc2ccc(S(=O)(=O)Nc3c(C)nn(C)c3C)cc12` [Compound 65, 4-(Ethyl(methyl)amino)-2-(methyl(piperidin-4-yl)amino)-N-(1,3,5-trimethyl-1H-pyrazol-4-yl)quinazoline-6-sulfonamide] the IC50 ([3]; CPM Assay, IC50 (CI95) LdNMT) was 0.33 µM.
